How the values were obtained:
Caco-2 cells = assay: Cytotoxicity study on Caco-2 cells (MTS assay); format: cell-based, Human; details: Caco-2, 2 hour incubation
Description: Culture of Caco-2 cells. Caco-2 cells were grown in DMEM high glucose with L-glutamine supplemented with 10% heat inactivated fetal bovine serum, 1% penicillin (100 U/mL), streptomycin (100 micrograms/mL), and 1% NEAA solution.
Cytotoxicity study on Caco-2 cells. Cytotoxicity was determined using a MTS assay as an indicator of cell viability. Cell viability was assessed after the co-incubation of 10,000 Caco-2 cells/well on a 96-well tissue cultured plate (Costar® Corning®) with the aforementioned formulations in dispersion in culture DMEM medium supplemented with 4 mM of glutamine, 100 U/mL of penicillin, 100 microgram/mL of streptomycin and […] heat inactivated fetal bovine serum. […] The EC50 value for the different formulations were calculated from the dataset by non-linear regression analysis using GraphPad Prism.

[1] = tested on: human intestinal tissue (jejunal); assay: Toxicity in human intestinal tissue in Ussing chambers (electrophysiology, forskolin response); details: Ussing chamber
Excerpt: Toxicity and permeability in human intestinal tissue. Jejunal tissue samples were collected from patients undergoing laparoscopic Roux-en-Y gastric bypass. Patients had given full informed consent. The study has been reviewed and approved by a regional ethical review board. Tissue samples were immediately transferred into a vessel containing cold, oxygenated Krebs-Ringer buffer and quickly transported to the laboratory. Arriving, the epithelium was dissected away from sub-epithelial tissues and mounted in horizontal as well as vertically oriented Ussing chambers with 9 mm openings between the two chambers. The basolateral chamber was filled with glucose containing Krebs-Ringer buffer, while the glucose in the apical chamber was substituted with mannitol. This is to avoid SGLT-induced tight junction opening. […] Electrophysiology of the tissue was monitored throughout the experiment to assure continued tissue viability. […] Viable tissue with oxidative metabolism will form cAMP in response to forskolin leading to an opening of CFTR C1 channels, the response was monitored as changes in potential difference and short-circuit current over the epithelium. The permeability of fluorescently labeled nanoparticles was analyzed in a plate reader and the apparent permeability rate constant (Papp) was calculated.

| SMILES | cytotoxicity (Caco-2 cells) | cytotoxicity sequence of tested products (Caco-2 cells) | forskolin response [1] |
| --- | --- | --- | --- |
| CC(C)CCC[C@@H](C)[C@H]1CC[C@H]2[C@@H]3CC=C4C[C@@H](OC(=O)N[C@H](CCCNC(=N)N)C(=O)N[C@H](CCCNC(=N)N)C(=O)N[C@H](CCCNC(=N)N)C(=O)N[C@H](CCCNC(=N)N)C(=O)N[C@H](CCCNC(=N)N)C(=O)N[C@H](CCCNC(=N)N)C(=O)N[C@H](CCCNC(=N)N)C(=O)N[C@H](CCCNC(=N)N)C(N)=O)CC[C@]4(C)[C@H]3CC[C@]12C [Chol-R8] | highest cytotoxicity | Chol-R8>C12-R8>ENCPs>diblock or branched PGA-PEG |  |
| CCCCCCCCCCCC(=O)N[C@H](CCCNC(=N)N)C(=O)N[C@H](CCCNC(=N)N)C(=O)N[C@H](CCCNC(=N)N)C(=O)N[C@H](CCCNC(=N)N)C(=O)N[C@H](CCCNC(=N)N)C(=O)N[C@H](CCCNC(=N)N)C(=O)N[C@H](CCCNC(=N)N)C(=O)N[C@H](CCCNC(=N)N)C(N)=O [Formulation C12-R8] |  | Chol-R8>C12-R8>ENCPs>diblock or branched PGA-PEG | no evident change |

From US10471020B2, “Nanoparticles with protected interiors, and methods of use thereof” (Universidade de Santiago de Compostela, priority 2016, dated 2019)
